Source: ChEMBL document CHEMBL1201862, “PubChem BioAssay data set” (2004)
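Cells were grown in 96-well plates and exposed to each compound for 48 hours at five concentrations; endpoints were interpolated linearly between bracketing concentrations, or set to the highest concentration if not reached. Here, GI50 denotes the concentration required for 50% inhibition of growth.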 Calls of active or inactive are those of the source. Rule as the data show it: active = GI50 up to about 1.1 µM and inactive = higher.

Tests used:
Assay in all cases: NCI-60 cell line screen, 48 h
[1] = test system: EKVX
[2] = test system: 786-0
[3] = test system: ACHN
[4] = test system: MDA-MB-231
[5] = test system: MOLT-4
[6] = test system: UACC-257
[7] = test system: SK-MEL-5
[8] = test system: SN12C
[9] = test system: COLO 205
[10] = test system: SK-MEL-2
[11] = test system: SNB-19
[12] = test system: IGROV-1
[13] = test system: A498
[14] = test system: TK-10
[15] = test system: CAKI-1
[16] = test system: HCC 2998
[17] = test system: HL-60
[18] = test system: OVCAR-4
[19] = test system: KM12
[20] = test system: SF-295
[21] = test system: RPMI-8226
[22] = test system: PC-3
[23] = test system: NCI-H460
[24] = test system: SK-OV-3
[25] = test system: CCRF-CEM
[26] = test system: MCF7
[27] = test system: HOP-62
[28] = test system: OVCAR-8
[29] = test system: NCI-H23
[30] = test system: Malme-3M
[31] = test system: UACC-62
[32] = test system: DU-145
[33] = test system: MDA-MB-435
[34] = test system: MDA-N
[35] = test system: SK-MEL-28
[36] = test system: M14
[37] = test system: Hs-578T
[38] = test system: NCI/ADR-RES
[39] = test system: SR
[40] = test system: U-251
[41] = test system: K562
[42] = test system: HT-29
[43] = test system: SW-620
[44] = test system: HCT-116
[45] = test system: SF-268
[46] = test system: UO-31
[47] = test system: LOX IMVI
[48] = test system: HCT-15
[49] = test system: SF-539
[50] = test system: NCI-H226
[51] = test system: T47D
[52] = test system: SNB-75
[53] = test system: A549
[54] = test system: OVCAR-3
[55] = test system: BT-549
[56] = test system: NCI-H522
[57] = test system: OVCAR-5
[58] = test system: RXF 393

Structure (SMILES): O=C(/C=C/c1ccsc1)c1ccc(Cl)s1
- GI50 [1]: > 100 µM (inactive)
- GI50 [2]: > 10 µM (inactive)
- GI50 [3]: > 100 µM (inactive)
- GI50 [4]: > 100 µM (inactive)
- GI50 [5]: 20.6 µM (inactive)
- GI50 [6]: > 100 µM (inactive)
- GI50 [7]: > 100 µM (inactive)
- GI50 [8]: 75.3 µM (inactive)
- GI50 [9]: > 100 µM (inactive)
- GI50 [10]: > 100 µM (inactive)
- GI50 [11]: > 100 µM (inactive)
- GI50 [12]: > 100 µM (inactive)
- GI50 [13]: 34.5 µM (inactive)
- GI50 [14]: > 100 µM (inactive)
- GI50 [15]: > 100 µM (inactive)
- GI50 [16]: 31.7 µM (inactive)
- GI50 [17]: 24.8 µM (inactive)
- GI50 [18]: > 100 µM (inactive)
- GI50 [19]: 19.5 µM (inactive)
- GI50 [20]: 59.4 µM (inactive)
- GI50 [21]: 17.1 µM (inactive)
- GI50 [22]: > 100 µM (inactive)
- GI50 [23]: > 100 µM (inactive)
- GI50 [24]: > 100 µM (inactive)
- GI50 [25]: 28.4 µM (inactive)
- GI50 [26]: 22.5 µM (inactive)
- GI50 [27]: > 100 µM (inactive)
- GI50 [28]: > 100 µM (inactive)
- GI50 [29]: 82.8 µM (inactive)
- GI50 [30]: > 100 µM (inactive)
- GI50 [31]: > 100 µM (inactive)
- GI50 [32]: > 100 µM (inactive)
- GI50 [33]: 30.6 µM (inactive)
- GI50 [34]: 56.6 µM (inactive)
- GI50 [35]: 55.1 µM (inactive)
- GI50 [36]: > 100 µM (inactive)
- GI50 [37]: > 100 µM (inactive)
- GI50 [38]: > 100 µM (inactive)
- GI50 [39]: 24 µM (inactive)
- GI50 [40]: > 100 µM (inactive)
- GI50 [41]: > 10 µM (inactive)
- GI50 [42]: 34 µM (inactive)
- GI50 [43]: 24.7 µM (inactive)
- GI50 [44]: 25.4 µM (inactive)
- GI50 [45]: 67.5 µM (inactive)
- GI50 [46]: 78.9 µM (inactive)
- GI50 [47]: 19.4 µM (inactive)
- GI50 [48]: 43.5 µM
- GI50 [49]: > 100 µM (inactive)
- GI50 [50]: 53.3 µM (inactive)
- GI50 [51]: > 100 µM (inactive)
- GI50 [52]: > 100 µM (inactive)
- GI50 [53]: > 100 µM (inactive)

Structure (SMILES): C=C(C)[C@@H]1CC[C@@H](C)[C@](O)([C@@H]2C[C@@H]([C@H](COC(=O)c3ccccc3)OC(=O)c3ccccc3)OC2=O)C1
- GI50 [1]: > 100 µM (inactive)
- GI50 [2]: > 100 µM (inactive)
- GI50 [3]: > 100 µM (inactive)
- GI50 [4]: > 100 µM (inactive)
- GI50 [5]: 28 µM (inactive)
- GI50 [6]: > 100 µM (inactive)
- GI50 [7]: > 100 µM (inactive)
- GI50 [8]: > 100 µM (inactive)
- GI50 [9]: > 100 µM (inactive)
- GI50 [10]: > 100 µM (inactive)
- GI50 [11]: > 100 µM (inactive)
- GI50 [12]: > 100 µM (inactive)
- GI50 [54]: > 100 µM (inactive)
- GI50 [13]: > 100 µM (inactive)
- GI50 [14]: > 100 µM (inactive)
- GI50 [15]: > 100 µM (inactive)
- GI50 [16]: > 100 µM (inactive)
- GI50 [18]: 59.4 µM (inactive)
- GI50 [19]: > 100 µM (inactive)
- GI50 [20]: > 100 µM (inactive)
- GI50 [55]: > 100 µM (inactive)
- GI50 [21]: 54 µM (inactive)
- GI50 [22]: 46.1 µM (inactive)
- GI50 [23]: 39.1 µM (inactive)
- GI50 [24]: > 100 µM (inactive)
- GI50 [25]: > 100 µM (inactive)
- GI50 [26]: > 100 µM (inactive)
- GI50 [27]: > 100 µM (inactive)
- GI50 [28]: > 100 µM (inactive)
- GI50 [29]: > 100 µM (inactive)
- GI50 [56]: > 100 µM (inactive)
- GI50 [30]: > 100 µM (inactive)
- GI50 [31]: > 100 µM (inactive)
- GI50 [32]: > 100 µM (inactive)
- GI50 [33]: > 100 µM (inactive)
- GI50 [34]: > 100 µM (inactive)
- GI50 [35]: > 100 µM (inactive)
- GI50 [36]: > 100 µM (inactive)
- GI50 [38]: > 100 µM (inactive)
- GI50 [39]: 24.9 µM (inactive)
- GI50 [40]: > 100 µM (inactive)
- GI50 [41]: > 100 µM (inactive)
- GI50 [42]: > 100 µM (inactive)
- GI50 [43]: > 100 µM (inactive)
- GI50 [57]: > 100 µM (inactive)
- GI50 [44]: > 100 µM (inactive)
- GI50 [45]: > 100 µM (inactive)
- GI50 [46]: 29 µM (inactive)
- GI50 [47]: > 100 µM (inactive)
- GI50 [48]: > 100 µM
- GI50 [49]: > 100 µM (inactive)
- GI50 [50]: > 100 µM (inactive)
- GI50 [52]: > 100 µM (inactive)
- GI50 [58]: > 100 µM (inactive)
- GI50 [53]: > 100 µM (inactive)
